Values joined by “and” are separate entries in the source; they are usually repeats but may differ in a detail not shown here. Equal entries are not always repeated. Where two headings read alike, the source gives them in different places.
How the values were obtained:
[1] = test system: Plasmodium yoelii yoelii 265BY; test: In vitro inhibition of P. yoelii yoelii 265BY growth (hepatic stage) in primary murine hepatocytes; assay type: cell-based; details: for IC50: Plasmodium yoelii, Hepatocyte, read-out: CI50 activity P. yoelii 265BY; for Selectivity index CI50 KB/CI50 yoelii: ratio between CI50 of cytotoxicity (KB) and CI50 of anti-malarial activity
Experimental: Primary cultures of mouse hepatocytes were isolated from livers of Swiss mice which were 6 to 8 weeks old by perfusion with collagenase (1 g/L) and purified through a 60% Percoll gradient.
The hepatocytes were cultured in sterile chambers (Lab-Tek) at the rate of 90,000 cells in 0.3 mL of complete culture medium as defined thereafter per well and incubated overnight at 37° C. under a 4% CO2 atmosphere. The hepatocytes' complet culture medium was Williams' E culture medium supplemented with 10% of decomplemented foetal calf serum, 1% glutamine, 1% Na pyruvate, 1% of a mixture of insulin, transferrine and selenium, 1% of non-essential amino-acids and with an antibiotic mixture comprising 1% of a solution of penicillin and streptomycine, 1% augmentin and […] flucytosine.
The parasites infecting the hepatocytes; i.e. the sporozoites, were recovered by dissection of infected anopheles mosquitoes salivary glands.
After grinding them in a Potter grinder with culture medium, the suspension was filtered on a 40 μm mesh filter and centrifuged (15,000 rpm) at 4° C. for 2 mn. The pellet was reintroduced in the complete culture medium. The sporozoites were then counted in a “Cell Vu” counter (CML) and the concentration was adjusted at 100,000 sporozoites per 70 μL, concentration needed for infection.
One day after, the hepatocytes were infected by the above sporozoites from salivary glands of infected anopheles mosquitoes at the rate of 100,000 sporozoites per well in the presence or absence of the product to be tested. When the infection had appeared, the medium was supplemented with 10^−7 M dexamethasone. The products were first solubilized in DMSO.
The infected hepatocytes were washed and fed with culture medium containing the test product, 3 hours and then 24 hours after the infection.
The cultures were stopped by treatment with a cold fixative methanol solution, 48 hours after the infection.
Parasites obtained in schizont stage were immunomarked firstly, with a serum isolated from BALB/c mice immunized with a recombinant fragment from the N-terminal of the recombinant protein I72 that reacted against HSP70 of Plasmodium and secondly with an antibody—a mouse anti-immunoglobulin—conjugated to FITC. Evans Blue and DAPI, a nucleic acid marker, were added to the hepatocytes simultaneously. The schizonts were then counted with a fluorescent microscope.
(§1) The Cl50 value (concentration causing 50% of inhibition in the number of parasites compared to controls wells, non treated) is the mean value of 3 independent evaluations through StatView SI Graphics.

[2] = In vitro cytotoxicity, neutral red, KB cells; assay type: cell-based; details: human, KB carcinoma cells (ATCC CCL-17), 72 hours incubation, read-out: CI50 cytotoxicity KB (converted)
Experimental: (§2) Stock solutions of testing compounds were prepared in H2O/DMSO (9/1).
(§3) After an incubation of 72 hours at 37° C. under a 5% CO2 atmosphere, 0.02% of neutral red in PBS was added.
(§4) 24 hours later, culture media were eliminated and cell membranes were lysed by addition of 1% of SDS in water.
(§5) Cell growth was estimated by colorimetric measurement of stained living cells, incorporating neutral red. Optical density was determined at 540 nm on a Titertek Multiskan photometer.
(§6) The Cl50 value was defined as the concentration of compound necessary to inhibit the cell growth to 50% of the control.

[3] = In vitro cytotoxicity, neutral red, HT29 cells; assay type: cell-based; details: human, HT29 colon tumor cells (ATCC HTB-38), 72 hours incubation, read-out: CI50 cytotoxicity HT29 (converted)
Experimental: as §2, §3, §4, §5, §6

[4] = test system: Plasmodium falciparum NF54; test: In vitro inhibition of P. falciparum NF54 (hepatic stage) in human hepatocytes; assay type: cell-based; details: NF54, Hepatocyte, 120 h, fixed 5 days after infection, read-out: CI50 activity P. falciparum NF54
Experimental: B—Human Model: Hepatic Stage of Plasmodium falciparum NF54
Human hepatocytes were obtained by enzymatic perfusion of fragments of liver of human adults which were submitted to partial hepatectomy.
The hepatocytes were infected at 24 hours of their culture by sporozoites obtained from salivary glands of P. falciparum infecting anopheles mosquitoes stephensi (Lab. of Pr. W. Eling, Univ. Of Nijmegen, NL).
The culture medium containing the test product was changed 3 hours after infection, and then renewed at least, each 24 hours during the experiment.
The cultures were fixed 5 days after infection, with the same method as described for the murine hepatocytes.
as §1

[5] = test system: Plasmodium yoelii yoelii 265BY; test: In vivo antimalarial activity in Swiss mice infected with sporozoites; details: for number of parasited red blood cells (parasitemia): compared to control group; for Number of parasited mice/total mice: 100 mg/kg fed four times
Experimental: 40 Swiss mice (six week old) have been subjected to the in vivo assay. They have been allotted in two groups: • a group of 20 mice were fed with compound (1) diluted in sterile water at a dose of 100 mg/kg four times; 24 hours and 1 hour before infection, 24 hours and 40 hours after infection during the hepatic stage period. • a control group of 20 mice were fed with sterile water at the same times.
The infection has been performed by retro-orbital injection of 4,000 sporozoites of Plasmodium yoelii yoelii 265BY in 100 μl phospate-buffered saline per mouse.
The parasitemia was monitored from the third day after the infection D3 when the parasites are liberated from the liver and enter into the blood circulation and each day until the 23rd day D23 after infection. The monitoring was performed by blood smears taken from the tail vein of the mice. The smears were stained with Giemsa and parasited red blood cells were counted with a microscope.
The parasitemia was calculated according to the following formula: Parasited red blood cell number×100/total red blood cell number.

Row | Structure (SMILES) | IC50 ([1]; 48 h) | Selectivity index CI50 KB/CI50 yoelii [1] | IC50 at 72 h [2] | IC50 at 72 h [3] | further results
1 | COC1=C2[C@@H]3[C@H](O)c4ccc(OC)c(O)c4[C@]2(CCN3C2CCCC2)C[C@H](O)[C@@H]1O [Compound (8), N-cyclopentyl-4,6,7,10-tetrahydroxy-8,14, didehydro-3,8-dimethoxy-morphinan] | 1.46 µg/mL and 3.5 µM | 18.9 | 27.6 µg/mL and 66.3 µM | > 80 µg/mL and > 192 µM | –
2 | COC1=C2[C@@H]3[C@H](O)c4ccc(OC)c(O)c4[C@]2(CCN3C)C[C@H](O)[C@@H]1O [Compound (3), N-methyl-4,6,7,10-tetrahydroxy-8,14, didehydro-3,8-dimethoxy-morphinan] | 2.09 µg/mL and 5.8 µM | 15.5 | 32.3 µg/mL and 89 µM | > 80 µg/mL and > 220 µM | –
3 | CCCN1CC[C@@]23C[C@H](O)[C@H](O)C(OC)=C2[C@@H]1[C@H](O)c1ccc(OC)c(O)c13 [Compound (4), N-propyl-4,6,7,10-tetrahydroxy-8,14, didehydro-3,8-dimethoxy-morphinan] | 4.93 µg/mL and 12.6 µM | 8.2 | 40.4 µg/mL and 103 µM | > 80 µg/mL and > 204 µM | –
4 | COc1cc(NC(C)CCCN)c2ncccc2c1 (centres unmarked) [primaquine, reference compound] | 0.16 µg/mL and 600 nM | 11.7 | 2 µg/mL and 7 µM | 20.1 µg/mL and 70.5 µM | –
5 | COC1=C2[C@@H]3[C@H](O)c4ccc(OC)c(O)c4[C@]2(CCN3Cc2ccc(O)cc2)C[C@H](O)[C@@H]1O [Compound (6), N-4-hydroxybenzyl-4,6,7,10-tetrahydroxy-8,14, didehydro-3,8-dimethoxy-morphinan] | 6.44 µg/mL and 14.2 µM | 1.5 | 9.53 µg/mL and 20.9 µM | 49 µg/mL and 108 µM | –
6 | CC[C@]1(O)C[C@@H]2CN(CCc3c([nH]c4ccccc34)[C@@](C(=O)OC)(c3cc4c(cc3OC)N(C)[C@H]3[C@@](O)(C(=O)OC)[C@H](OC(C)=O)[C@]5(CC)C=CCN6CC[C@]43[C@@H]65)C2)C1 [Vinblastine, vinblastine, reference compound] | – | – | 0.018 µg/mL and 22 nM | 0.008 µg/mL and 9.9 nM | –
7 | COC1=C2[C@H]3NCC[C@]2(C[C@H](O)[C@@H]1O)c1c(ccc(OC)c1O)[C@H]3O [Compound (1), 4,6,7,10-tetrahydroxy-8,14-didehydro-3,8-dimethoxy-morphinan] | 1.08 µg/mL and 3.1 µM | 1.8 | 1.99 µg/mL and 5.7 µM | 22 µg/mL and 63 µM | IC50 [4]: 1.51 µg/mL and 4.3 µM; number of parasited red blood cells (parasitemia) ([5]; 100 mg/kg): reduces parasitemia; number of parasited red blood cells (parasitemia) ([5]; 100 mg/kg, listed as compound (1)): significant decrease; total protection against malaria infection in mice ([5]; 100 mg/kg, oral administration): 70%; survival of mice at D23 ([5]; 100 mg/kg, control group 75%): 90%; delay of parasitemia for treated mice not protected, compared to control ([5]; 100 mg/kg, the 30% of treated mice not protected): ≥ 3 days; Number of parasited mice/total mice ([5]; D3 post-infection): 0/20; Number of parasited mice/total mice ([5]; D4 post-infection): 0/20; Number of parasited mice/total mice ([5]; D5 post-infection): 0/20; Number of parasited mice/total mice ([5]; D6 post-infection): 1/20; Number of parasited mice/total mice ([5]; D7 post-infection): 4/20; Number of parasited mice/total mice ([5]; D8 post-infection): 6/20; Number of parasited mice/total mice ([5]; D23 post-infection): 6/18
8 | COC1=C2[C@@H]3Cc4ccc(OC)c(O)c4[C@]2(CCN3)C[C@H](O)[C@@H]1O [Compound (2), 4,6,7-trihydroxy-8,14-didehydro-3,8-dimethoxy-morphinan] | 1.5 µg/mL and 4.5 µM | 0.9 | 1.3 µg/mL and 3.9 µM | 12.2 µg/mL and 36.8 µM | IC50 [4]: 3.36 µg/mL and 10.1 µM
9 | COC1=C2[C@@H]3[C@H](O)c4ccc(OC)c(O)c4[C@]2(CCN3Cc2ccc(Br)cc2)C[C@H](O)[C@@H]1O [Compound (7), N-4-bromobenzyl-4,6,7,10-tetrahydroxy-8,14, didehydro-3,8-dimethoxy-morphinan] | 2.19 µg/mL and 4.2 µM | 7.3 | 15.8 µg/mL and 30.5 µM | > 80 µg/mL and > 154 µM | –
10 | COC1=C2[C@@H]3[C@H](O)c4ccc(OC)c(O)c4[C@]2(CCN3Cc2ccc(OC)cc2)C[C@H](O)[C@@H]1O [Compound (5), N-4-methoxybenzyl-4,6,7,10-tetrahydroxy-8,14, didehydro-3,8-dimethoxy-morphinan] | 11.4 µg/mL and 24.2 µM | 1.9 | 21.2 µg/mL and 45.3 µM | > 80 µg/mL and > 170 µM | –
11 | O=C1C(O)=C([C@H]2CC[C@H](c3ccc(Cl)cc3)CC2)C(=O)c2ccccc21 [Atovaquone, atovaquone, reference compound] | – | 891.2 | 18.6 µg/mL and 50.8 µM | 44.6 µg/mL and 122 µM | IC50 ([1]; murine hepatocytes, schizonts counted 48 hours after infection, mean of 3 evaluations): 0.021 µg/mL; IC50 ([1]; murine hepatocytes, schizonts counted 48 hours after infection): 57 nM
12 | O=c1[nH]cc(F)c(=O)[nH]1 [5-fluorouracile, reference compound] | – | – | 0.047 µg/mL and 360 nM | 54.9 µg/mL and 422 µM | –

Source: patent publication US7943633B2, “Alkaloid compounds and their use as anti-malarial drugs” (Universite Pierre et Marie Curie (Paris VI), priority 2004, dated 2011)
